According to patent publication US20230085307A1, “PYRIDAZINONE COMPOUND AND HERBICIDE” (NISSAN CHEMICAL CORPORATION, priority 2019, published 2023):

Experiments:
[1] = tested on: redroot pigweed; assay: Test Example 4: herbicidal effect by soil treatment (Table 19, symbol N); format: in vivo, redroot pigweed (Amaranthus retroflexus); conditions: amount of applied herbicide 320 g/ha
In short: (§1)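 Seeds were sown in sterilized diluvial soil and covered with about 1.5 cm of soil. An emulsion formulation diluted with water to a predetermined herbicide amount was sprayed evenly onto the soil surface. Plants grew in a greenhouse at 25° C. to 30° C., and the effect was scored three weeks after application using criteria from an earlier test.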

[2] = tested on: blackgrass; assay: Test Example 4: herbicidal effect by soil treatment (Table 19, symbol J); format: in vivo, blackgrass (Alopecurus myosuroides); conditions: amount of applied herbicide 320 g/ha
In short: as §1

[3] = tested on: windgrass; assay: Test Example 5: herbicidal effect by foliage application, plastic box (Table 20, symbol L); format: in vivo, windgrass (Apera spica-venti); conditions: foliage application, 320 g/ha, three weeks after application
In short: (§2)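 Plants sown in sterilized diluvial soil and grown 14 days in a greenhouse at 25° C to 30° C, then sprayed on the foliage with the compound's emulsion diluted in water to a predetermined herbicide amount. Injury to weeds and crops scored three weeks after application on a visual rating scale.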

[4] = tested on: southern crabgrass; assay: Test Example 4: herbicidal effect by soil treatment (Table 19, symbol F); format: in vivo, southern crabgrass (Digitaria ciliaris); conditions: amount of applied herbicide 320 g/ha
In short: as §1

[5] = tested on: Chinese sprangletop; assay: Test Example 3: herbicidal effect by foliage application, Wagner pot (Table 18, symbol D); format: in vivo, chinese sprangletop (Leptochloa chinensis); conditions: amount of applied herbicide 320 g/ha
In short: (§3)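 Plants were sown in alluvial soil held under 0.1–0.5 cm standing water and grown 14 days in a greenhouse at 25–30 °C. An emulsifiable formulation, water-diluted to the set dose, was then sprayed onto the foliage, and effects were scored three weeks later using previously defined criteria.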

[6] = tested on: barnyard grass; assay: Test Example 3: herbicidal effect by foliage application, Wagner pot (Table 18, symbol H); format: in vivo, barnyard grass (Echinochloa crus-galli); conditions: amount of applied herbicide 320 g/ha
In short: as §3

[7] = tested on: blackgrass; assay: Test Example 5: herbicidal effect by foliage application, plastic box (Table 20, symbol J); format: in vivo, blackgrass (Alopecurus myosuroides); conditions: foliage application, 320 g/ha, three weeks after application
In short: as §2

[8] = tested on: Italian ryegrass; assay: Test Example 4: herbicidal effect by soil treatment (Table 19, symbol K); format: in vivo, Italian ryegrass (Lolium multiflorum); conditions: amount of applied herbicide 320 g/ha
In short: as §1

[9] = tested on: lambsquarters; assay: Test Example 4: herbicidal effect by soil treatment (Table 19, symbol O); format: in vivo, lambsquarters (Chenopodium album); conditions: amount of applied herbicide 320 g/ha
In short: as §1

[10] = tested on: false cleavers; assay: Test Example 4: herbicidal effect by soil treatment (Table 19, symbol Q); format: in vivo, false cleavers (Galium spurium); conditions: amount of applied herbicide 320 g/ha
In short: as §1

[11] = tested on: velvetleaf; assay: Test Example 5: herbicidal effect by foliage application, plastic box (Table 20, symbol M); format: in vivo, velvetleaf (Abutilon theophrasti); conditions: foliage application, 320 g/ha, three weeks after application
In short: as §2

[12] = tested on: green foxtail; assay: Test Example 4: herbicidal effect by soil treatment (Table 19, symbol G); format: in vivo, green foxtail (Setaria viridis); conditions: amount of applied herbicide 320 g/ha
In short: as §1

[13] = tested on: Japanese bulrush; assay: Test Example 1: herbicidal activity, application before weed generation under submerged conditions (Table 16, symbol B); format: in vivo, Japanese bulrush (Schoenoplectus juncoides); conditions: amount of applied herbicide 320 g/ha
In short: (§4)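 Emulsion formulation, water-diluted to set dose, was put onto the flooded surface (4 cm depth, alluvial soil) the same day weeds were sown and 2.5-leaf rice transplanted. After 3 weeks at 25-30 °C under glass, each species was rated 0 (≤5% kill) to 5 (≥90% kill).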

[14] = tested on: southern crabgrass; assay: Test Example 5: herbicidal effect by foliage application, plastic box (Table 20, symbol F); format: in vivo, southern crabgrass (Digitaria ciliaris); conditions: foliage application, 320 g/ha, three weeks after application
In short: as §2

[15] = tested on: barnyard grass; assay: Test Example 5: herbicidal effect by foliage application, plastic box (Table 20, symbol H); format: in vivo, barnyard grass (Echinochloa crus-galli); conditions: foliage application, 320 g/ha, three weeks after application
In short: as §2

[16] = tested on: oval-leafed pondweed; assay: Test Example 1: herbicidal activity, application before weed generation under submerged conditions (Table 16, symbol C); format: in vivo, oval-leafed pondweed (Monochoria vaginalis); conditions: amount of applied herbicide 320 g/ha
In short: as §4

[17] = tested on: persian speedwell; assay: Test Example 5: herbicidal effect by foliage application, plastic box (Table 20, symbol R); format: in vivo, Persian speedwell (Veronica persica); conditions: foliage application, 320 g/ha, three weeks after application
In short: as §2

[18] = tested on: Italian ryegrass; assay: Test Example 5: herbicidal effect by foliage application, plastic box (Table 20, symbol K); format: in vivo, Italian ryegrass (Lolium multiflorum); conditions: foliage application, 320 g/ha, three weeks after application
In short: as §2

[19] = tested on: lambsquarters; assay: Test Example 5: herbicidal effect by foliage application, plastic box (Table 20, symbol O); format: in vivo, lambsquarters (Chenopodium album); conditions: foliage application, 320 g/ha, three weeks after application
In short: as §2

[20] = tested on: barnyard grass; assay: Test Example 4: herbicidal effect by soil treatment (Table 19, symbol H); format: in vivo, barnyard grass (Echinochloa crus-galli); conditions: amount of applied herbicide 320 g/ha
In short: as §1

[21] = tested on: wild oat; assay: Test Example 5: herbicidal effect by foliage application, plastic box (Table 20, symbol I); format: in vivo, wild oat (Avena fatua); conditions: foliage application, 320 g/ha, three weeks after application
In short: as §2

[22] = tested on: late watergrass; assay: Test Example 1: herbicidal activity, application before weed generation under submerged conditions (Table 16, symbol A); format: in vivo, late watergrass (Echinochloa oryzicola); conditions: amount of applied herbicide 320 g/ha
In short: as §4

[23] = tested on: green foxtail; assay: Test Example 5: herbicidal effect by foliage application, plastic box (Table 20, symbol G); format: in vivo, green foxtail (Setaria viridis); conditions: foliage application, 320 g/ha, three weeks after application
In short: as §2

[24] = tested on: rice flat sedge; assay: Test Example 3: herbicidal effect by foliage application, Wagner pot (Table 18, symbol E); format: in vivo, rice flat sedge (Cyperus iria); conditions: amount of applied herbicide 320 g/ha
In short: as §3

[25] = tested on: velvetleaf; assay: Test Example 4: herbicidal effect by soil treatment (Table 19, symbol M); format: in vivo, velvetleaf (Abutilon theophrasti); conditions: amount of applied herbicide 320 g/ha
In short: as §1

[26] = tested on: windgrass; assay: Test Example 4: herbicidal effect by soil treatment (Table 19, symbol L); format: in vivo, windgrass (Apera spica-venti); conditions: amount of applied herbicide 320 g/ha
In short: as §1

[27] = tested on: wild oat; assay: Test Example 4: herbicidal effect by soil treatment (Table 19, symbol I); format: in vivo, wild oat (Avena fatua); conditions: amount of applied herbicide 320 g/ha
In short: as §1

COCc1ccc(-c2oc3ccc(F)cc3c2-c2c(O)c(C)nn(C)c2=O)cc1 [9-043]
N: redroot pigweed, herbicidal effect grade [1]: 5 (Herbicidal rate of 90% or more (almost completely withered)) | J: blackgrass, herbicidal effect grade [2]: 4 (Herbicidal rate of 70% or more and less than 90%) | herbicidal effect on windgrass (L) [3]: 0 (Herbicidal rate of 5% or less (almost no effect)) | F: southern crabgrass, herbicidal effect grade [4]: 4 (Herbicidal rate of 70% or more and less than 90%) | Herbicidal effect on D (Chinese sprangletop), foliage application [5]: 3 (Herbicidal rate of 40% or more and less than 70%) | Herbicidal effect on H (barnyard grass), foliage application [6]: 4 (Herbicidal rate of 70% or more and less than 90%) | herbicidal effect on blackgrass (J) [7]: 4 (Herbicidal rate of 70% or more and less than 90%) | K: Italian ryegrass, herbicidal effect grade [8]: 5 (Herbicidal rate of 90% or more (almost completely withered)) | O: lambsquarters, herbicidal effect grade [9]: 3 (Herbicidal rate of 40% or more and less than 70%) | Q: false cleavers, herbicidal effect grade [10]: 0 (Herbicidal rate of 5% or less (almost no effect)) | herbicidal effect on velvetleaf (M) [11]: 4 (Herbicidal rate of 70% or more and less than 90%) | G: green foxtail, herbicidal effect grade [12]: 5 (Herbicidal rate of 90% or more (almost completely withered)) | Herbicidal effect, B: Japanese bulrush [13]: 0 (Herbicidal rate of 5% or less (almost no effect)) | herbicidal effect on southern crabgrass (F) [14]: 3 (Herbicidal rate of 40% or more and less than 70%) | herbicidal effect on barnyard grass (H) [15]: 3 (Herbicidal rate of 40% or more and less than 70%) | Herbicidal effect, C: oval-leafed pondweed [16]: 2 (Herbicidal rate of 20% or more and less than 40%) | herbicidal effect on persian speedwell (R) [17]: 5 (Herbicidal rate of 90% or more (almost completely withered)) | herbicidal effect on Italian ryegrass (K) [18]: 5 (Herbicidal rate of 90% or more (almost completely withered)) | herbicidal effect on lambsquarters (O) [19]: 4 (Herbicidal rate of 70% or more and less than 90%) | H: barnyard grass, herbicidal effect grade [20]: 4 (Herbicidal rate of 70% or more and less than 90%) | herbicidal effect on wild oat (I) [21]: 0 (Herbicidal rate of 5% or less (almost no effect)) | Herbicidal effect, A: late watergrass [22]: 3 (Herbicidal rate of 40% or more and less than 70%) | herbicidal effect on green foxtail (G) [23]: 4 (Herbicidal rate of 70% or more and less than 90%) | Herbicidal effect on E (rice flat sedge), foliage application [24]: 5 (Herbicidal rate of 90% or more (almost completely withered)) | M: velvetleaf, herbicidal effect grade [25]: 4 (Herbicidal rate of 70% or more and less than 90%) | L: windgrass, herbicidal effect grade [26]: 0 (Herbicidal rate of 5% or less (almost no effect)) | I: wild oat, herbicidal effect grade [27]: 0 (Herbicidal rate of 5% or less (almost no effect))
